From patent US7846708B2, “Method for increasing the survival of bacterial strains of the Rhizobium genus” (Consiglo Nazionale delle Richerch, priority 2005, dated 2010)

Tests used:
[1] = system: Sinorhizobium meliloti 1021; test: Effect of dehydration on survival (vacuum-dried cells plated at increasing times); format: cell-based
Method: A culture of the wild strain S. meliloti 1021, of the strain 64 and 66 were kept in growth stationary phase for three days, then they were dehydrated […] and plated at the various times shown in figure. Furthermore, a culture of the wild strain 1021 was subjected to analogous treatment, thereto 0.05 mM IAA were added after two days of growing in stationary phase, the stationary growth continued for a third day and then the bacteria were dehydrated and processed like the preceding samples.
For the dehydration test (FIG. 8), the cells were grown until reaching the stationary phase and kept for 3 days in stationary phase. The cells were centrifuged at 4000 rpm for 15′, washed in water and counted on plates as live colonies. The cells were then diluted so as to be aliquoted in Eppendorf tubes at the concentration of 1:10000 for each sample and then vacuum-dried in Savant centrifuge. After 4, 8, 14 and 32 days, the aliquots were plated on TYR selective medium, the formed colonies were counted on at least three plates and the experiment was repeated at least three times.

[2] = system: Sinorhizobium meliloti strain 1021 cells; test: Cell resistance of Sinorhizobium meliloti cells to various stress conditions (colony counting after stress); format: cell-based
Method: (§1) The number of colonies of not treated Sinorhizobium meliloti 1021 was compared to the one of the same strain treated with IAA (0.05 mM and 0.5 mM) two days after reaching the stationary phase of bacterial growth. The percentage value of the surviving cells was measured several days after treatment. Applied stresses were: pH 3 (acid stress): cells were incubated for 30 minutes and then plated; NaCl 0.5 M (high osmotic pressure): 3 hours incubation; UV light resistance: time was not determined but the UV dose was selected to reach an irradiation dosage of 100 J/m^2; treatment at high temperature 55° C.: cells were incubated for 5 minutes; treatment at low temperature (4° C.) cells were incubated for up to 60 days at 4° C.
The author has assayed for the bacteria resistance to stresses such as low and high temperatures. For the resistance to high temperatures the cells were grown in exponential phase (optical density 0.6) and then incubated for 2 minutes at room temperature or at 55° C. and then plated.
Sinorhizobium meliloti strain 1021 cells and its derivative RD64 overproducing IAA, were exposed to different stress conditions and the number of surviving cells counted by plating opportune dilutions on agar plates; after plates incubation at 30° C., the number of emerging colonies were counted (Table 1).
As a control untreated cells were plated and the number of colonies was considered as 100% for that condition. Stress applied were: • 1) low pH, pH 3, treatment: 30 minutes; • 2) high osmotic pressure (0.5 M NaCl): 3 hours; • 3) UV irradiation were automatically set at 100 J/m^2 and cells were irradiate for less that 1 minute; • 4) High (55° C.) temperature treatment: 5 minutes. Results A) Expression of the Beta-glucuronidase Modulated by the Mutation in the Promoter-iaaMtms2 Sequence

S. meliloti 1021 = test: Survival at low temperature (4° C.), colony counting; format: cell-based, Sinorhizobium meliloti; conditions: 0.5 mM IAA; after 45 and 60 days at 4° C.; FIG. 9
Method: FIG. 9: Survival at 4° C. of wild type S. meliloti 1021 treated with IAA and of the strain RD64. The bacterial cells of the three analysed strains (wild type S.m. 1021, S.m. treated with 0.5 mM IAA and RD64) were grown until exponential phase, then plated and the plates were incubated at 4° C. for 15, 30, 45 and 60 days. Every 15 days, a plate group of each strain was transferred to 30° C. for one day and the colonies were counted.
Furthermore, the author has assayed for the ability of the same strains to resist to prolonged incubations at low temperature (4° C.). The cells of the same three strains: Sm 1021, Sm 1021 treated with 0.5 mM IAA and the strain RD64, were grown until an optical density of 0.6, plated and incubated at 4° C. for periods of time variable up to two months.

[3] = system: Sinorhizobium meliloti 1021; test: Growth and survival test in liquid minimal medium (colonies on agar plates after prolonged stationary phase); format: cell-based; conditions: for ability to generate colonies with respect to the reference strain (1021): FIG. 6; for increase of the ability to generate colonies: FIG. 7, 7 and 15 days after IAA addition
Method: For the growth and survival tests the minimal medium was utilized. A culture of the various strains was kept in growth stationary phase for two days, then they were collected, properly diluted and plated at the various recommended periods of time so as to obtain about 100-1000 colonies per plate. For the strains to be treated with IAA, the addition (0.05 or 0.5 mM IAA) occurred after two days of growth in stationary phase, then the bacteria were diluted and plated.
The author has evaluated the ability of S. meliloti 1021 to generate colonies on agar plates after prolonged incubation in growth medium. The formed colonies were counted on at least five plates and the experiment was repeated at least five times.
as §1
In fact, the following groups were compared: • Sm 1021; • Sm 1021 additioned with 0.5 mM IAA; • Sm 1021 additioned with 0.05 mM IAA; • Sm 1021 containing the wild promoter-iaaMtms2 construct (RD 64) • Sm 1021 containing the promoter-iaaMtms2 construct mutated in the −16/−14 GAC region (RD65); • Sm 1021 containing the promoter-iaaMtms2 construct mutated in the −48, 49, 51, 52 G region (RD66); • Sm 1021 containing the promoter-iaaMtms2 construct mutated in the −40-37 CCCC (RD67); b) Effect of Various IAA Concentrations on the Survival of Sinorhizobium Meliloti 1021
In order to evaluate the effect of different IAA concentrations on the survival of Sinorhizobium meliloti 1021 the number of colonies generated on agar plates were evaluated (see FIG. 7). The utilized concentrations were 0.05; 0.2; 0.5; and 2 mM IAA. The inocula of the wild strain not treated with IAA were used as controls as well as the RD64 strain. The number of colonies of S.m. 1021 was arbitrarily set equal to 100%. The number of colonies generated after 7 and 15 days of growth after the IAA addition in the growth liquid medium was evaluated.

## O=C(O)Cc1c[nH]c2ccccc12 [IAA, indole-3-acetic acid]
[1]; IAA at 0.05 mM, FIG. 8
  increase of the survival of the bacterial cells under dehydration: up to 50%
[1]; IAA purified at 0.05 mM, after two weeks
  additional increase in the cellular survival of pelleted, dehydrated and plated cells: up to 40%
[2]; 0.5 M NaCl, 3 hours, unstressed cells = 100%, IAA added at 0.5 mM to 1021, strain 64 without addition
  Survival (%), Osmotic shock (+0.5 M NaCl): 78 ± 1%
[2]; 55° C., 5 minutes, unstressed cells = 100%, IAA added at 0.5 mM to 1021, strain 64 without addition
  Survival (%), Heat-shock (55° C.): 0.196 ± 0.021%
[2]; 55° C., relative to untreated 1021
  more resistant than the untreated 1021, high temperature: 10%
[2]; 100 J/m^2, unstressed cells = 100%, IAA added at 0.5 mM to 1021, strain 64 without addition
  Survival (%), UV-irradiation (100 J/m^2): 86 ± 1%
[2]; UV irradiation, relative to untreated 1021
  more resistant than the untreated 1021, intense UV irradiation: 10%
[2]; heat shock, IAA at 0.05 mM as printed, relative to S.m. 1021
  colonies generated more than the control after heat shock: up to 20%
[2]; high osmotic solution, relative to untreated 1021
  more resistant than the untreated 1021, high osmotic solution: 50%
[2]; pH3, 30 minutes, relative to untreated 1021
  more resistant than the untreated 1021, very low pH: 100%
[2]; pH 3, 30 minutes, unstressed cells = 100%, IAA added at 0.5 mM to 1021, strain 64 without addition
  Survival (%), Acid shock (pH 3.0): 0.0023 ± 0.0006%
S. meliloti 1021
  number of cells able to generate colonies after incubation at 4° C. with respect to the not treated strain: almost the double
[3]; 0.05 mM IAA added after two days in stationary phase
  ability to generate colonies with respect to the reference strain (1021): greater ability to generate colonies
[3]; 0.2 mM IAA
  increase of the ability to generate colonies: effective to increase the ability to generate colonies
[3]; 0.5 mM IAA added after two days in stationary phase
  ability to generate colonies with respect to the reference strain (1021): greater ability to generate colonies
[3]; 0.5 mM IAA
  increase of the ability to generate colonies: effective to increase the ability to generate colonies
[3]; purified IAA at 0.5 mM, after two growth weeks
  total increase in the number of live cells in liquid culture with respect to the wild strain: at least 100%
